Results on 1 compound are retold here after ChEMBL document CHEMBL6182924, “Discovery of a Novel and Potent MET Transcription Inhibitor Targeting Promoter G-Quadruplex for the Treatment of NSCLC” (J Med Chem, 2025).

The test system of data set [1] is A549. Description: Induction of apoptosis in human A549 cells assessed as necrotic cells at 0.5 uM incubated for 24 hrs by Annexin V-FITC/PI staining based flow cytometry analysis (reference value: 4.37 %). Type of data set: functional. (Flow cytometry measures light scatter and fluorescence of single cells or particles in a stream.)
The test system of data set [2] is A549. As to the kind of experiment: Inhibition of colony formation in human A549 cells incubated for 2 weeks by crystal violet staining based analysis. Type of data set: functional, cell-based. The following applies: dose 0.5-2 µM.
Data set [3] deals with NCI-H1975. Description: Induction of cell cycle arrest in human NCI-H1975 cells assessed as accumulation of cells at G1 phase at 1 uM measured for 24 hrs by PI/Rnase staining based flow cytometry (reference value: 79.2 %). Type of data set: functional.
In data set [4] the test system is A549. As to the kind of experiment: Induction of cell cycle arrest in human A549 cells assessed as accumulation of cells at G2 phase at 2 uM measured for 24 hrs by PI/Rnase staining based flow cytometry (reference value: 13.4 %). Type of data set: functional.
The nature of data set [5]: Toxicity in BALB/c mouse xenografted with human A549 cells assessed as kidney damage at 20 mg/kg, po administered once a day and measured after 20 days by H and E staining based analysis. As to conditions: in vivo, 480 h, time 20 day. The format is organism-based.
The subject of data set [6] is NCI-H1975. Description: Inhibition of cell migration in human NCI-H1975 cells incubated for 12 hrs by crystal violet staining based analysis. The format is functional. As to conditions: dose 0.5-2 µM.
In data set [7] the test system is NCI-H1975. Description: Antiproliferative activity against human NCI-H1975 cells incubated for 3 days by CCK-8 assay. The format is functional, cell-based. The following applies: NCI-H1975, 72 h.
Data set [8] deals with A549. As to the kind of experiment: Downregulation of c-Met expression in human A549 cells at 1 uM by Western blot analysis. Type of data set: functional, cell-based. As to conditions: time <= 72.0 hrs. In general terms: A western blot detects proteins with antibodies after separation by electrophoresis.
Data set [9] has as its system NCI-H1975. As to the kind of experiment: Inhibition of cell invasion in human NCI-H1975 cells incubated for 12 hrs. As to conditions: dose 0.5-2 µM. The format is functional, cell-based.
Data set [10] concerns A549. Description: Antitumor activity against human A549 cells xenografted in BALB/c mouse assessed as downregulation of c-MET expression in tumor at 20 mg/kg, po administered once a day and measured for 20 days by Western blot analysis. Type of data set: functional, organism-based. The following applies: time 20.0 day. On the technique in general: In xenograft studies the graft and the host belong to different species.

Data set [11] has as its system NCI-H1975. As to the kind of experiment: Induction of apoptosis in human NCI-H1975 cells assessed as early apoptotic cells at 0.5 uM incubated for 24 hrs by Annexin V-FITC/PI staining based flow cytometry analysis (reference value: 0.35 %). The format is functional.
Data set [12] concerns A549. Description: Induction of apoptosis in human A549 cells assessed as viable cells at 0.5 uM incubated for 24 hrs by Annexin V-FITC/PI staining based flow cytometry analysis (reference value: 91.3%). Type of data set: functional. As to conditions: read-out: Activity.
For data set [13], the system named is A549. Description: Induction of cell cycle arrest in human A549 cells assessed as accumulation of cells at G1 phase at 0.5 uM measured for 24 hrs by PI/Rnase staining based flow cytometry (reference value: 75.2 %). Type of data set: functional.

Active and inactive are the calls of the source. The calls are words filed in the database; no cut-off is given here.

Broadly, the IC50 is the concentration at which inhibition is half-maximal. As for `COc1cccc(-c2ccc(-c3nc4c5cccnc5c5ncccc5c4[nH]3)o2)c1`, the Activity in the data set with A549 [1] is 3.79%; with NCI-H1975 [3] it was 82.1%; in the data set on A549 [4] it was 9.06%; in data set [5], “Non-toxic”; in the data set with A549 [8], “Time-dependent-effect”; with NCI-H1975 [11], 2.01%. The Activity in the data set with A549 [13] amounted to 75.4%. Further, the inhibition result with A549 [2], with NCI-H1975 [6] and in the data set with NCI-H1975 [9] was “Dose-dependent-effect” each time. This compound also returned a half-inhibitory concentration (IC50) in the data set on NCI-H1975 [7] of 1680 nM. Moreover, the outcome with A549 [10] was Active. Also, the viability at 0.5 µM in the data set with A549 [12] was determined as 83.2%.
